Assays:
[1] = Heat resistance test (TG-DTA, initiation temperature of 5% weight decrease); type: physicochemical; settings: 10 mg, 30° C. to 500° C., 10° C./min
[2] = Exposure curing test using bisphenol A-type diglycidyl ether; settings: 10 mg compound, 100 mg jER 828, 50 mg KarenzMT PE1

Row | Compound | Decomposition initiation temperature [1] [°C] | Dissolution into the mixed solution of the bisphenol A-type diglycidyl ether oligomer and pentaerythritol tetrakis(3-mercaptobutyrate) [2]
1 | CC(C(=O)O)c1cccc(C(=O)c2ccccc2)c1 (stereo not shown) [formula (101), guanidium 2-(3-benzoylphenyl)propionate, reference compound] | 161 | did not dissolve
2 | 1,2-dicyclohexyl-4,4,5,5-tetramethylbiguanidium 2-(9-oxoxanthene-2-yl)propionate [formula (4)] | 199 | –
3 | 1,2-dicyclohexyl-4,4,5,5-tetramethylbiguanidium 8(7H)-ethylidene-4-methoxy-5,6-dihydronaphthalene-1-carboxylate [formula (6)] | 205 | –
4 | 1,2-diisopropyl-4,4,5,5-tetramethylbiguanidium 2-(9-oxoxanthene-2-yl)propionate [formula (7)] | 200 | –
5 | 1,2-diisopropyl-4,4,5,5-tetramethylbiguanidium 8(7H)-ethylidene-4-methoxy-5,6-dihydronaphthalene-1-carboxylate [formula (5)] | 204 | –
6 | 1,2-diisopropyl-4,4,5,5-tetramethylbiguanidium N-phthaloylglycine [formula (8)] | 206 | –

Reference: patent US10428014B2, “Base generator, base-reactive composition containing said base generator, and base generation method” (FUJIFILM Wako Pure Chemical Corporation, priority 2013, dated 2019)
